{
  "source": "patent US5776914A",
  "about": "“Prevention of hemolysis” (The Trustees of the University of Pennsylvania, priority 1994, dated 1998)",
  "key": {"erythrocytes [1]": {"system": "erythrocytes", "assay_type": "cell-based, human", "description": "FIG. 2 graphically illustrates the hemolytic effects of two hydroxyalkyl substituted cyclodextrins, 2-hydroxyethyl-β-cyclodextrin (β-CD-4-Et) and 2-hydroxypropyl-β-cyclodextrin (β-CD-4Pr) in comparison to the polyanionically substituted cyclodextrin β-cyclodextrin-tetradecasulfate sodium (β-CD-14s) on fresh human blood to which about 0.47% sodium citrate was added.\nThe first sample contained erythrocytes and isotonic saline. This first sample served as a zero blank."}, "in vitro": {"test": "in vitro", "assay_type": "cell-based, human", "conditions": "human, erythrocytes"}, "erythrocytes [2]": {"system": "erythrocytes", "test": "in vitro", "assay_type": "cell-based, human"}, "erythrocytes [3]": {"system": "erythrocytes", "conditions": "cited from earlier work; for concentration above/at which hemolysis is induced: background statement; for hemolytic activity (in words): known in the art / literature"}, "solubility limit": {"test": "solubility limit", "assay_type": "physicochemical", "conditions": "20° C."}, "erythrocytes [4]": {"system": "erythrocytes", "conditions": "1.0 mM β-cyclodextrin, simultaneous use (Uekama 1981); cited from earlier work"}, "erythrocytes [5]": {"system": "erythrocytes", "test": "inhibition of hemolysis induced by hemolytic agents (CPZ, CD, Pr-OH-CD, clay)", "conditions": "for Hemolysis: 15 min", "method": "Unless explicitly stated otherwise, hemolytic activity was measured by the procedure described by I. Jodal et al., Proceedings of the Fourth International Symposium on Cyclodextrins, O. Huber and J. Szejtli, Eds., 421-425, Kluwer Academic Publishers, Boston (1988), which is incorporated herein by reference.\nFor each of the examples which follow, sodium citrate was added about (to about 0.47%) to fresh human blood collected from healthy laboratory personnel. After centrifugation (10 min., 400×G) to separate the erythrocytes from other blood components, the supernatant erythrocyte fraction was recentrifuged and washed twice with isotonic phosphate buffer. The erythrocytes were diluted with that buffer to a 10% hematocrit value to obtain an erythrocyte suspension. Test material and erythrocytes were mixed as follows: about 3.6, 1.8, and 0.9 ml of a test material solution was mixed with about 0.4, 0.2 and 0.1 ml, respectively, of erythrocyte suspension and then incubated for about 15 minutes each at about 37° C., followed by two centrifugations for two minutes each at about 4000×G The resulting supernatants were measured for absorbance at 543 nm using a Gilford spectrophotometer. The percent of hemolysis was determined by reference to two control samples. The first sample contained erythrocytes and isotonic saline. This first sample served as a zero blank. The second sample was identical to the first but had been sonicated to provide a value for 100% hemolysis."}},
  "data": [
    {"compound": "2-hydroxyethyl-β-cyclodextrin [β-CD-4-Et]", "values": [
      {"measurement": "hemolytic effect (FIG. 2)", "setting": "erythrocytes [1]", "result": "induced hemolysis at low concentrations"}
    ]},
    {"compound": "2-hydroxypropyl-β-cyclodextrin [β-CD-4Pr]", "values": [
      {"measurement": "hemolytic effect (FIG. 2)", "setting": "erythrocytes [1]", "result": "induced hemolysis at low concentrations"}
    ]},
    {"compound": "CN(C)CCCN1c2ccccc2Sc2ccc(Cl)cc21", "note": "[CPZ, chloropromazine]", "values": [
      {"measurement": "hemolysis at 0.25 h", "setting": "in vitro; 0.5 mg/ml of CPZ", "result": "~100", "unit": "%"},
      {"measurement": "hemolysis at 0.25 h", "setting": "in vitro; CPZ 0.15 mg/ml (Example 1)", "result": 4.9, "unit": "%"},
      {"measurement": "hemolysis at 0.25 h", "setting": "in vitro; CPZ 0.25 mg/ml (Example 2)", "result": 7, "unit": "%"},
      {"measurement": "hemolysis at 0.25 h", "setting": "in vitro; CPZ 0.30 mg/ml (Example 3)", "result": 88, "unit": "%"},
      {"measurement": "hemolysis at 0.25 h", "setting": "in vitro; CPZ 0.40 mg/ml (Example 4)", "result": 96, "unit": "%"},
      {"measurement": "hemolysis (in words)", "setting": "erythrocytes [2]; concentrations approaching 0.5 mg/ml of CPZ", "result": "complete hemolysis"},
      {"measurement": "hemolysis (in words)", "setting": "erythrocytes [2]; without CDS, about one-fifth of 2.0 mg/ml CPZ (Example 4)", "result": "substantially complete hemolysis"},
      {"measurement": "concentration above/at which hemolysis is induced", "setting": "erythrocytes [3]", "result": "> 0.5", "unit": "mM"},
      {"measurement": "hemolytic activity (in words)", "setting": "erythrocytes [3]", "result": "hemolysis inducing agents"}
    ]},
    {"compound": "CC(C(=O)O)c1ccc(-c2ccccc2)c(F)c1", "note": "(stereo not shown) [flurbiprofen]", "values": [
      {"measurement": "hemolytic activity (in words)", "setting": "erythrocytes [3]", "result": "hemolysis inducing agents"}
    ]},
    {"compound": "C=C[C@]1(C)C[C@@H](OC(=O)CSCCN(CC)CC)[C@]2(C)[C@H](C)CC[C@]3(CCC(=O)[C@H]32)[C@@H](C)[C@@H]1O", "note": "[tiamulin]", "values": [
      {"measurement": "hemolytic activity (in words)", "setting": "erythrocytes [3]", "result": "hemolysis inducing agents"}
    ]},
    {"compound": "OC[C@H]1O[C@@H]2O[C@H]3[C@H](O)[C@@H](O)[C@@H](O[C@H]4[C@H](O)[C@@H](O)[C@@H](O[C@H]5[C@H](O)[C@@H](O)[C@@H](O[C@H]6[C@H](O)[C@@H](O)[C@@H](O[C@H]7[C@H](O)[C@@H](O)[C@@H](O[C@H]8[C@H](O)[C@@H](O)[C@@H](O[C@H]1[C@H](O)[C@H]2O)O[C@@H]8CO)O[C@@H]7CO)O[C@@H]6CO)O[C@@H]5CO)O[C@@H]4CO)O[C@@H]3CO", "note": "[β-CD, β-cyclodextrin]", "values": [
      {"measurement": "onset of hemolysis (concentration inducing hemolysis)", "setting": "erythrocytes [1]; human", "result": "about 6 mg/ml"},
      {"measurement": "solubility", "setting": "solubility limit", "result": "13 to 18", "unit": "mg/mL"},
      {"measurement": "inhibition of hemolytic action of chlorpromazine", "setting": "erythrocytes [4]", "result": "inhibits the hemolytic action"},
      {"measurement": "concentration above/at which hemolysis is induced", "setting": "erythrocytes [3]", "result": "2 to 3", "unit": "mM"},
      {"measurement": "Hemolysis", "setting": "erythrocytes [5]; CPZ 0.5 mg/ml (1.5 mM) + CD 5.0 mg/ml (4.0 mM), molar ratio CD/CPZ 2.7 (Example 20)", "result": 6.5},
      {"measurement": "Hemolysis", "setting": "erythrocytes [5]; CPZ 0.75 mg/ml (2.25 mM) + CD 7.5 mg/ml (6.0 mM), molar ratio CD/CPZ 2.7 (Example 21)", "result": 21},
      {"measurement": "Hemolysis", "setting": "erythrocytes [5]; CPZ 1.0 mg/ml (3.0 mM) + CD 10 mg/ml (8.0 mM), molar ratio CD/CPZ 2.7 (Example 22)", "result": 80},
      {"measurement": "protection from hemolysis by CPZ (in words)", "setting": "erythrocytes [5]; Example 20: CPZ 0.5 mg/ml + CD 5.0 mg/ml", "result": "considerable protection"},
      {"measurement": "protection from hemolysis by CPZ (in words)", "setting": "erythrocytes [5]; Examples 21 and 22: CPZ 0.75-1.0 mg/ml + CD 7.5-10 mg/ml", "result": "protection is lost"}
    ]},
    {"compound": "β-cyclodextrin-tetradecasulfate sodium [β-CD-14s]", "values": [
      {"measurement": "hemolytic effect (FIG. 2)", "setting": "erythrocytes [1]", "result": "no undesirable hemolytic properties"},
      {"measurement": "reduction of the level of hemolysis", "setting": "erythrocytes [5]; CD about 15 mg/ml, β-CD-14s 50 mg/ml", "result": "about 41%"},
      {"measurement": "fold reduction of hemolysis", "setting": "erythrocytes [5]; CD about 15 mg/ml, β-CD-14s 150 mg/ml", "result": "about 30 fold"},
      {"measurement": "hemolytic activity of the composition with CPZ (in words)", "setting": "erythrocytes [5]; Example 23: CPZ 1.0 mg/ml + 50 mg/ml CDS", "result": "substantially reduced hemolytic activity"},
      {"measurement": "hemolytic effect (in words)", "setting": "erythrocytes [5]; about 70 mg/ml CDS, about 2.0 mg/ml CPZ", "result": "negligible hemolytic effect"},
      {"measurement": "fold improvement, that is, reduction in hemolysis", "setting": "erythrocytes [5]; hydroxypropyl cyclodextrin 75 mg/ml, β-CD-14s 100 mg/ml", "result": "at least 20 fold"}
    ]}
  ]
}
